Experimental findings from PubChem BioAssay (NCI) are described below.

The structures appear in SMILES notation. Values joined by “and” are separate entries in the source; they are usually repeats but may differ in a detail not shown here. Equal entries are not always repeated.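 96-well plates; 48 h exposure; 5 concentrations. Endpoints by linear interpolation between flanking doses. Not reached: highest tested concentration assigned. Abbreviation: GI50, concentration required for 50% inhibition of growth. TGI marks complete inhibition of growth.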

Test systems include SR leukemia; MCF7 breast; KM12 colon; M14 melanoma; MDA-MB-231 breast; OVCAR-5 ovarian; LOX IMVI melanoma; HOP-92 NSCLC; RXF 393 renal; CCRF-CEM leukemia.
Common to all, as to assay: NCI-60 cell line screen, 48 h

As to `Cc1cn2c(/C=N/Nc3ccccn3)c(-c3ccc(Cl)c([N+](=O)[O-])c3)nc2s1`, the GI50 is 1.86 µM in the experiment with SR leukemia; 3.27 µM in the experiment on MCF7 breast; 23.1 µM with KM12 colon; 10.8 µM in the experiment on M14 melanoma; 6.73 µM with MDA-MB-231 breast; 11.8 µM with OVCAR-5 ovarian. Besides, the values for the GI50 in the experiment with LOX IMVI melanoma and with HOP-92 NSCLC were 8.03 µM and 12.9 µM, respectively. Further, the TGI in the experiment on SR leukemia was 10.6 µM; with MCF7 breast, > 50 µM; with KM12 colon, > 50 µM; in the experiment with M14 melanoma, 23 µM; in the experiment with MDA-MB-231 breast, 18.2 µM; with OVCAR-5 ovarian, 39.5 µM. Further, the TGI in the experiment on LOX IMVI melanoma was 16.5 µM; in the experiment on HOP-92 NSCLC it was > 50 µM.
Consider `Nc1ccc(-c2ccc(N)cc2I)c(I)c1`, for which the GI50 in the experiment on RXF 393 renal was 10.9 µM; with SR leukemia it was 5.1 µM; in the experiment on MCF7 breast it was 18.4 µM; in the experiment with CCRF-CEM leukemia it was 8.14 µM; in the experiment with KM12 colon it was 14.5 µM; in the experiment with M14 melanoma, 12.2 µM. Further, the GI50 in the experiment with MDA-MB-231 breast was 16.6 µM; with OVCAR-5 ovarian it was 17.5 µM; in the experiment on LOX IMVI melanoma, 16.3 µM; in the experiment on HOP-92 NSCLC, 11.2 µM. In addition, the TGI in the experiment on RXF 393 renal came to 28 µM; in the experiment on SR leukemia, 39.8 µM; in the experiment with MCF7 breast it was 58.1 µM; in the experiment on CCRF-CEM leukemia, 43.3 µM; with KM12 colon, 36.5 µM; in the experiment with M14 melanoma it was 34.4 µM. Also, the TGI in the experiment with MDA-MB-231 breast is 46.4 µM; in the experiment with OVCAR-5 ovarian, 54.8 µM; in the experiment with LOX IMVI melanoma it was 31.2 µM; in the experiment on HOP-92 NSCLC, 37 µM.
Regarding `CN(C)c1ccc(C(=C2C=CC(=[N+](C)C)C=C2)c2ccc(N(C)C)cc2)cc1`, the GI50 with RXF 393 renal was 0.113 µM; with SR leukemia it was 0.0591 µM; with KM12 colon, 0.0781 µM; in the experiment with M14 melanoma it was 0.14 µM; in the experiment on MDA-MB-231 breast, 0.246 µM; with OVCAR-5 ovarian, 0.295 µM. Also, in the experiment with HOP-92 NSCLC, the GI50 is 0.145 µM. Further, the TGI in the experiment on RXF 393 renal is 0.468 µM and 0.695 µM; with SR leukemia, 0.672 µM and 3.2 µM; with CCRF-CEM leukemia, 0.832 µM; in the experiment with KM12 colon it was 0.397 µM and 0.93 µM; with M14 melanoma it was 0.598 µM and 1.39 µM; in the experiment with MDA-MB-231 breast, 1.26 µM. In addition, the TGI in the experiment with OVCAR-5 ovarian was 1.17 µM and 0.578 µM; in the experiment with HOP-92 NSCLC, 0.461 µM.
As to `CSc1ccccc1C#Cc1ccccc1C#CCCCCO`, the GI50 in the experiment on RXF 393 renal is 3.86 µM; in the experiment with SR leukemia it was 3.54 µM; in the experiment on MCF7 breast, 19.1 µM; in the experiment on CCRF-CEM leukemia it was 10.3 µM; in the experiment with KM12 colon, 3.39 µM; in the experiment with MDA-MB-231 breast it was 2.57 µM. In addition, the GI50 with OVCAR-5 ovarian is 13.6 µM; in the experiment with LOX IMVI melanoma, 5.87 µM; in the experiment with HOP-92 NSCLC, 9.76 µM. The TGI in the experiment on RXF 393 renal was 17.5 µM; in the experiment on SR leukemia, 17.5 µM; in the experiment on MCF7 breast, 39.2 µM; in the experiment with CCRF-CEM leukemia, 46.5 µM; with KM12 colon, 16.9 µM; in the experiment with MDA-MB-231 breast it was 13.2 µM. Further, the TGI in the experiment with OVCAR-5 ovarian was determined as 32.2 µM; in the experiment on LOX IMVI melanoma, 19.2 µM; in the experiment with HOP-92 NSCLC, 25.1 µM.
As for `S=C(Nc1cc(Cl)c(Cl)cc1Cl)SCc1ccccc1`, the TGI with RXF 393 renal was > 100 µM; in the experiment on SR leukemia it was 10.8 µM; in the experiment on MCF7 breast, > 100 µM; with KM12 colon, 36.6 µM; in the experiment with M14 melanoma it was > 100 µM; with MDA-MB-231 breast, 29.6 µM. The TGI with OVCAR-5 ovarian was found to be 46.5 µM; with HOP-92 NSCLC, 75.8 µM.
As to `Clc1nc(Cl)c(-c2ccccc2)c(Cl)n1`, the TGI in the experiment on RXF 393 renal is 5.58 µM; with SR leukemia, 6.85 µM; in the experiment on MCF7 breast, 9.45 µM; in the experiment with CCRF-CEM leukemia it was 8.28 µM; in the experiment with KM12 colon, 14.6 µM; in the experiment on M14 melanoma, 3.33 µM. Moreover, the TGI was determined as 10.7 µM in the experiment with MDA-MB-231 breast, 9.88 µM in the experiment with OVCAR-5 ovarian, 3.73 µM with LOX IMVI melanoma and 11.4 µM in the experiment with HOP-92 NSCLC.
On to `CC(C)N1C(NNC(=O)c2cnccn2)=NS(=O)(=O)c2ccccc21`, for which the GI50 in the experiment on RXF 393 renal was > 100 µM; in the experiment on SR leukemia, > 100 µM; with MCF7 breast, > 100 µM; with CCRF-CEM leukemia, 1.33 µM; in the experiment with KM12 colon, > 100 µM; with M14 melanoma, > 100 µM. Further, the GI50 in the experiment with MDA-MB-231 breast, in the experiment with OVCAR-5 ovarian and in the experiment with LOX IMVI melanoma was > 100 µM each time. Also, the TGI in the experiment on RXF 393 renal is > 100 µM; in the experiment with SR leukemia, > 100 µM; in the experiment with MCF7 breast, > 100 µM; in the experiment on CCRF-CEM leukemia, 6.3 µM; with KM12 colon it was > 100 µM; with M14 melanoma it was > 100 µM. Moreover, the TGI with MDA-MB-231 breast, with OVCAR-5 ovarian and in the experiment with LOX IMVI melanoma was > 100 µM each time.
Turning to `Nc1cc(N)c2nc(-c3ccccc3)c(NCc3ccc(F)cc3)nc2c1`, the GI50 was 12.3 µM in the experiment on RXF 393 renal; 4.11 µM with SR leukemia; 2.99 µM in the experiment with MCF7 breast; 2.82 µM with KM12 colon; 23.7 µM with M14 melanoma; 2.13 µM with MDA-MB-231 breast. Further, the GI50 in the experiment with OVCAR-5 ovarian was 2.62 µM; in the experiment on LOX IMVI melanoma, 1.52 µM; in the experiment with HOP-92 NSCLC it was 3.32 µM. Moreover, the TGI is 27.2 µM in the experiment on RXF 393 renal; > 100 µM in the experiment on SR leukemia; > 100 µM with MCF7 breast; 7.38 µM in the experiment on KM12 colon; 55.9 µM with M14 melanoma; 5.08 µM with MDA-MB-231 breast. Also, the values for the TGI with OVCAR-5 ovarian, in the experiment on LOX IMVI melanoma and with HOP-92 NSCLC were 7.61 µM, 3.17 µM and 6.91 µM, respectively.
Turning to `CC(=O)O[C@H]1CC[C@@]2(C)[C@@H](CC[C@@H]3[C@@H]2CC[C@]2(C)C=C(C=O)C[C@@H]32)C1`, the GI50 with SR leukemia is 3.19 µM; with MCF7 breast, 2.58 µM; with CCRF-CEM leukemia, 2.48 µM; in the experiment with KM12 colon it was 12.7 µM; in the experiment on M14 melanoma, 4.74 µM; with MDA-MB-231 breast, 10.6 µM. Besides, the GI50 was 13.2 µM with OVCAR-5 ovarian and 1.75 µM in the experiment on LOX IMVI melanoma. The TGI with SR leukemia amounted to 9.94 µM; in the experiment on MCF7 breast it was 10.8 µM; with CCRF-CEM leukemia, 6.75 µM; in the experiment on KM12 colon it was 30 µM; in the experiment on M14 melanoma, 20.8 µM; in the experiment on MDA-MB-231 breast it was 27.5 µM. Moreover, the TGI in the experiment with OVCAR-5 ovarian worked out at 34.4 µM; in the experiment with LOX IMVI melanoma, 3.54 µM.
